Test systems include TK-10; CCRF-CEM; RXF 393; UACC-62; Malme-3M; COLO 205; 786-0; NCI-H23; DLD-1; UACC-257; KM-20L2; SW-620; SK-MEL-2; SNB-19; SK-MEL-5; U-251; NCI-H226.
Holding throughout (test): inhibition of tumour cell growth, NCI panel, 48 h

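Cultured in 96-well plates, cells were exposed to test compound for 48 hours across five concentrations. GI50 = concentration required for 50% inhibition of growth.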 Activity calls are given as the source filed them. Cut-off read from the data, not from the text of the source: active = GI50 up to about 1.1 µM and inactive = higher. Bounds are passed on as bounds.

As to `CN(C)CC/C(=N\Nc1c(Cl)cccc1Cl)c1ccccc1`, the GI50 with TK-10 was 16.8 µM (inactive); with CCRF-CEM it was 28.2 µM (inactive); in the assay with RXF 393 it was 11.8 µM (inactive); in the assay on UACC-62, 15.8 µM (inactive); in the assay with Malme-3M, 21 µM (inactive); in the assay on COLO 205 it was 15.6 µM (inactive). Besides, the GI50 in the assay with 786-0 is 15.3 µM (inactive); in the assay with NCI-H23 it was 15.6 µM (inactive); in the assay with DLD-1, 31.1 µM (inactive); in the assay with UACC-257 it was 17.7 µM (inactive); with KM-20L2, 17.1 µM (inactive); in the assay with SW-620 it was 17.6 µM (inactive). In addition, the GI50 in the assay with SK-MEL-2 is 18.2 µM (inactive); with SNB-19, 35.1 µM (inactive); in the assay on SK-MEL-5, 15.1 µM (inactive); with U-251, 16.8 µM (inactive).

Regarding `N#CC1C(=O)NC(=O)C1=O` (stereo unspecified), the GI50 with TK-10, in the assay with RXF 393, with UACC-62, with Malme-3M, with COLO 205 and with NCI-H226 was > 100 µM (inactive) each time. Also, the GI50 in the assay with 786-0, in the assay with NCI-H23, in the assay on UACC-257, with KM-20L2, in the assay with SW-620 and with SK-MEL-2 was > 100 µM (inactive) throughout. In addition, the GI50 with SNB-19, in the assay with SK-MEL-5 and with U-251 was > 100 µM (inactive) each time.

`Cc1cc(NS(=O)(=O)c2ccc(NC(=O)c3cccc4c(=O)c5ccccc5[nH]c34)cc2)no1`: the GI50 in the assay on TK-10 is 40.2 µM (inactive); in the assay with CCRF-CEM it was 32.6 µM (inactive); with UACC-62, 26.1 µM (inactive); in the assay with Malme-3M it was 63.1 µM (inactive); with COLO 205 it was 50.5 µM (inactive); in the assay with NCI-H226, 41.9 µM (inactive). The GI50 with 786-0 is 10.2 µM (inactive); in the assay with NCI-H23 it was 60.7 µM (inactive); in the assay on DLD-1, 61.4 µM (inactive); in the assay with UACC-257 it was 87.7 µM (inactive); in the assay on KM-20L2, > 100 µM (inactive); in the assay with SW-620 it was 55.6 µM (inactive). The GI50 with SK-MEL-2 is 34.7 µM (inactive); in the assay on SNB-19 it was 36.2 µM (inactive); in the assay with SK-MEL-5, 40.8 µM (inactive); in the assay on U-251, 29.9 µM (inactive).

For the compound `CCCCN/C(=N/C#N)NCc1ccccc1`, the GI50 in the assay with TK-10, in the assay with CCRF-CEM, in the assay with UACC-62, with Malme-3M, in the assay on COLO 205 and in the assay with NCI-H226 was > 100 µM (inactive) in each case. For the same compound, the GI50 in the assay with 786-0, in the assay with NCI-H23, in the assay with DLD-1, in the assay with KM-20L2, in the assay with SW-620 and in the assay on SK-MEL-2 was > 100 µM (inactive) each time. For the same compound, the GI50 in the assay on SNB-19, with SK-MEL-5 and in the assay on U-251 was > 100 µM (inactive) each time.

As to `CCCN(CCC)C(=O)c1nc(N)nc(-c2ccc(OC)cc2)c1-c1ccc(OC)cc1`, the GI50 in the assay with TK-10, with CCRF-CEM, in the assay on UACC-62, in the assay with Malme-3M, in the assay on COLO 205 and with NCI-H226 was > 100 µM (inactive) in each case. Moreover, the GI50 with 786-0, in the assay with NCI-H23, in the assay on DLD-1, with UACC-257, in the assay with KM-20L2 and in the assay with SW-620 was > 100 µM (inactive) in each case. Besides, the GI50 with SK-MEL-2, with SNB-19, with SK-MEL-5 and in the assay with U-251 was > 100 µM (inactive) throughout.

Regarding `c1ccc(P(=C2c3ccccc3-c3ccccc32)(c2ccccc2)c2ccccc2)cc1`, the GI50 is 7.64 µM (inactive) in the assay with TK-10; 2.51 µM (inactive) in the assay with CCRF-CEM; 13 µM (inactive) in the assay on RXF 393; 3.46 µM (inactive) with UACC-62; 3.08 µM (inactive) in the assay on Malme-3M; 3.42 µM (inactive) in the assay with COLO 205. Further, the GI50 in the assay on 786-0 was 4.68 µM (inactive); in the assay with NCI-H23 it was 2.45 µM (inactive); in the assay on DLD-1, 4.32 µM (inactive); with UACC-257, 3.94 µM (inactive); with KM-20L2, 2.56 µM (inactive); in the assay on SW-620, 3.37 µM (inactive). The GI50 in the assay on SK-MEL-2 was 5.35 µM (inactive); in the assay on SNB-19, 4.67 µM (inactive); in the assay on SK-MEL-5 it was 2.17 µM (inactive); with U-251, 3.05 µM (inactive).

As for `CCOC(=O)C(=O)Nc1nc2c(s1)C(=O)c1ccccc1C2=O`, the GI50 in the assay with CCRF-CEM is 5.05 µM (inactive); in the assay on UACC-62 it was 17.5 µM (inactive); with Malme-3M, 12.3 µM (inactive); in the assay with COLO 205 it was 22.5 µM (inactive); in the assay with NCI-H226, 18.2 µM (inactive); with 786-0, 17.4 µM (inactive). Also, the GI50 in the assay with NCI-H23 is 13.5 µM (inactive); with DLD-1, 15.3 µM (inactive); in the assay with UACC-257, 16.1 µM (inactive); in the assay on KM-20L2, 21.2 µM (inactive); in the assay on SW-620, 13.4 µM (inactive); in the assay on SK-MEL-2, 17.2 µM (inactive). The GI50 is 17.9 µM (inactive) in the assay with SNB-19, 14.3 µM (inactive) in the assay with SK-MEL-5 and 16.6 µM (inactive) with U-251.

With `O=C1/C(=N\O)C2CCC1C2` (stereo unspecified), the GI50 in the assay on TK-10, in the assay on CCRF-CEM, with RXF 393, with UACC-62, in the assay on Malme-3M and with COLO 205 was > 100 µM (inactive) throughout. Moreover, the GI50 in the assay with NCI-H226, with 786-0, with NCI-H23, with UACC-257, in the assay with KM-20L2 and in the assay on SW-620 was > 100 µM (inactive) each time. Further, the GI50 in the assay on SK-MEL-2, in the assay on SNB-19, with SK-MEL-5 and in the assay with U-251 was > 100 µM (inactive) throughout.

For the compound `COc1cc(O)c(C(=O)/C=C/c2ccc(OC)c(OCc3ccccc3)c2)c(OC)c1`, the GI50 in the assay with TK-10 is > 100 µM (inactive); in the assay on CCRF-CEM, 3.92 µM (inactive); with RXF 393, 5.21 µM (inactive); with UACC-62, 1.42 µM (inactive); in the assay with COLO 205 it was 0.0446 µM (active); in the assay on NCI-H226, > 100 µM (inactive). The GI50 in the assay on 786-0 is > 100 µM (inactive); in the assay with NCI-H23, 6.52 µM (inactive); in the assay with DLD-1, > 100 µM (inactive); in the assay on UACC-257, > 100 µM (inactive); in the assay on KM-20L2 it was > 100 µM (inactive); with SW-620, 36.5 µM (inactive). Also, the GI50 in the assay with SK-MEL-2 was 37.8 µM (inactive); in the assay with SNB-19 it was > 100 µM (inactive); in the assay with SK-MEL-5 it was > 100 µM (inactive); in the assay with U-251, > 100 µM (inactive).
